Reference: patent US7166612B2, “Methods for reducing platelet activation platelet aggregaton or thrombosis” (Beth Israel Deaconess Medical Center, priority 2001, dated 2007)
pIC50: −log10 of the molar value.

Assays:
[1] = target: T1, human platelet PDE5 (Homo sapiens, UniProt O76074); assay: phosphodiesterase inhibition, PDE5; type: biochemical; conditions: up to 1 μM, in words
T1 construct: from tissue; host or cells: human platelets
Procedure: (§1) Intracellular cAMP generated by adenylyl cyclase in platelets is actively hydrolyzed by phosphodiesterase. […] Human platelets express PDE2, PDE3, and PDE5. Therefore, the compound was tested for its inhibitory effect on these phosphodiesterases using methods as described in Example 3.

[2] = target: T2, human platelet PDE3 (Homo sapiens, UniProt Q14432); assay: phosphodiesterase inhibition, PDE3; type: biochemical
T2 construct: from tissue; host or cells: human platelets
T2 sequence (Q14432 whole entry): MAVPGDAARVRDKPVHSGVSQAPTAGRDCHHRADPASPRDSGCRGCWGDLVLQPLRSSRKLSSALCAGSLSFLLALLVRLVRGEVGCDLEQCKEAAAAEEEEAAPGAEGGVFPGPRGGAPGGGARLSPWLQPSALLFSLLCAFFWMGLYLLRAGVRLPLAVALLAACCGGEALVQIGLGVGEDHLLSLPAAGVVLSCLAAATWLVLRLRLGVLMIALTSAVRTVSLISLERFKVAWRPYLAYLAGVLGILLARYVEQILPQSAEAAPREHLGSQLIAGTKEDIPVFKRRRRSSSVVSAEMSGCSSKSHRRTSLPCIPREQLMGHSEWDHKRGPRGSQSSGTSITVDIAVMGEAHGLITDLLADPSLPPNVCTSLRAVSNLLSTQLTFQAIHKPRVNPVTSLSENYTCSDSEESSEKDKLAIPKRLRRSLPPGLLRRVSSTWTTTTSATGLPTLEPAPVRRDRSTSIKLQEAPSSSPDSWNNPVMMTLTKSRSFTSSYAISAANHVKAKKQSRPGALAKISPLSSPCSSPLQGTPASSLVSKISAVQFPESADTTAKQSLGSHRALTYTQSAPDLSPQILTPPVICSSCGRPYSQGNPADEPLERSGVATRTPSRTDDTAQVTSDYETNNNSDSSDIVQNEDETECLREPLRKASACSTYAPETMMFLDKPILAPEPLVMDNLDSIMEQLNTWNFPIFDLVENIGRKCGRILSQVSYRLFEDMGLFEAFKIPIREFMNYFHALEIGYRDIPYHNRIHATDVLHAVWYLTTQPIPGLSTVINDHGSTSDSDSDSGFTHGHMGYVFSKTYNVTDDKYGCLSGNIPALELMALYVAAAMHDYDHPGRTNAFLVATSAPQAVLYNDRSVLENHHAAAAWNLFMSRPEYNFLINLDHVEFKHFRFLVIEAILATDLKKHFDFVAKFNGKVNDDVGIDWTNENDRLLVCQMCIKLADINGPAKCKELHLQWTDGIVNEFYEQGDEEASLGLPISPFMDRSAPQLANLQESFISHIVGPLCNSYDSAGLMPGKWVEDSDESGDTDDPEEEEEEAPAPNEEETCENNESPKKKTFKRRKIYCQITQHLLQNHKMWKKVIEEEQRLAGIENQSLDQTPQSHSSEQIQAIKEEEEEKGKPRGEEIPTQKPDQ
Procedure: as §1

[3] = test system: platelet F-actin assembly; assay: F-actin assembly (FITC-phalloidin, flow cytometry); type: cell-based; conditions: in words
Description: To determine whether or not the effects of the pyridazinone compound were limited to inhibition of alpha-granule secretion, the ability of the compound to inhibit F-actin assembly and aIIbβ3 activation was examined. F-actin assembly was detected using FITC-phalloidin and quantified by flow cytometry (Winokur et al., 1995, Blood 85, 1796–804; Oda et al., 1992, Blood 79, 920–7).

[4] = test system: platelets; assay: platelet aggregation (aggregometer); type: cell-based, human; conditions: in words
Procedure: Platelet aggregation profiling is a standard methodology, generally performed with an instrument adapted for that express purpose, for example, a Platelet Aggregation Profiler (BioData, Horsham, Pa.). The assays can generally be performed according to the instructions of the manufacturer. As exemplary conditions, 400 μl of PRP are incubated with inhibitor for 15 minutes at room temperature. The sample is then incubated for 3 minutes at 37° C. in the Platelet Aggregation Profiler. The instrument is calibrated with platelet poor plasma serving as a blank. A baseline tracing is established by monitoring the light transmittance of PRP being stirred at 1200 rpm. Aggregation is initiated by the addition of SFLLR (200 μM) and the percent of platelet aggregation is measured by the change in light transmittance for 6 minutes following addition of SFLLR.

[5] = test system: PGE1-induced cAMP levels in platelets; assay: augmentation of PGE1-induced cAMP levels in platelets; type: cell-based, human; conditions: in words
Procedure: (A) Compound was tested for its ability to inhibit SFLLR-, U46619-, ADP-, PMA-, and collagen I-induced platelet α-granule secretion. (B) The effect of the compound on PGE1-stimulated cAMP elevation was analyzed. Platelets were incubated with increasing doses of pyridazinone compound for 30 minutes prior to the 2 minute incubation with PGE1. Platelets were subsequently lysed and cAMP level was assayed using a commercially available ELISA kit (Liao et al., 1998, Eur J Pharmacol 349, 107–14). […] Error bars represent mean ±1 SD (n=4), *P<0.001.
One frequent target of anti-platelet agents is phosphodiesterase III (PDE III). […] The assay is performed as described by Liao et al., 1998, Eur J Pharmacol 349,107–114, incorporated herein by reference. Briefly, aliquots of PRP are exposed to increasing concentrations of the agent for 20 minutes. The PRP is then challenged with 1 μM PGE1 for 2 min The reaction is stopped by adding 10 mM EDTA, followed immediately by boiling for 2 min. The mixture is cooled to 4° C. and the precipitated protein is pelleted. cAMP content in the supernatant is quantitated using an enzyme immunoassay kit (Pharmacia-Amersham, NJ) according to the instructions of the manufacturer.
In order to assess whether the compounds useful according to the invention might act through inhibition phosphodiesterase III, each was tested for its effect on PGE1-induced cAMP increase. Determination of platelet cAMP levels was performed as described by Liao et al., 1998, supra. Aliquots of PRP were exposed to increasing concentrations of the indicated compounds for 20 min. PRP was then challenged with 1 μM PGE1 for 2 min. The reaction was stopped with the addition of 10 mM EDTA followed immediately by boiling for 2 min. The mixture was then cooled to 4° C. and the precipitated protein was pelleted. Cyclic AMP content in the supernatant was then quantified using an enzyme immunoassay kit (Pharmacia-Amersham, NJ) according to the instructions of the manufacturer.

[6] = test system: platelet GPIIbIIIa; assay: SFLLR-induced GPIIbIIIa activation (PAC-1 antibody, flow cytometry); type: cell-based, human; conditions: in words
Procedure: In order to assay platelet activation by cell surface marker expression, fresh PRP is isolated from donors who have not ingested aspirin for two weeks prior to donation. PRP (40 μl) is incubated with known or suspected inhibitor in DMSO or DMSO alone for 15 min. The sample is then incubated with the indicated agonist (e.g., SFLLR) for 10 min. Following incubation of the sample with the indicated agonist, 10 μl of reaction mixture is transferred to 5 μl of phycoerythrin (PE)-conjugated AC 1.2 anti-P-selectin antibody (for assessment of P-selectin surface expression) or fluorescein isothiocyanate (FITC)-conjugated PAC-1 antibody (for assessment of GPIIbIIIa activation). PBS (500 μl) is added to the sample after a 20 min incubation and the platelets are analyzed immediately by flow cytometry. […] A 530/30 band pass filter is used for FL-1 fluorescence. A 585/42 band pass filter is used for FL-2 fluorescence. FITC is measured in the FL-1 channel and PE is measured in the FL-2 channel. Data are analyzed using, for example, CellQuest software on a Macintosh PowerPC, or their equivalents.
Compounds were also tested by flow cytometry for the inhibition of SFLLR-induced GPIIbIIIa activation and P-selectin expression. […] PBS (500 μl) was added to the sample after a 20 min incubation and the platelets were analyzed immediately by flow cytometry. […] A 530/30 band pass filter was used for FL-1 fluorescence. […]

[7] = target: recombinant human PDE2 (Homo sapiens, UniProt O00408); assay: phosphodiesterase inhibition, PDE2; type: biochemical; conditions: up to 1 μM, in words
recombinant human PDE2, sequence (O00408 whole entry): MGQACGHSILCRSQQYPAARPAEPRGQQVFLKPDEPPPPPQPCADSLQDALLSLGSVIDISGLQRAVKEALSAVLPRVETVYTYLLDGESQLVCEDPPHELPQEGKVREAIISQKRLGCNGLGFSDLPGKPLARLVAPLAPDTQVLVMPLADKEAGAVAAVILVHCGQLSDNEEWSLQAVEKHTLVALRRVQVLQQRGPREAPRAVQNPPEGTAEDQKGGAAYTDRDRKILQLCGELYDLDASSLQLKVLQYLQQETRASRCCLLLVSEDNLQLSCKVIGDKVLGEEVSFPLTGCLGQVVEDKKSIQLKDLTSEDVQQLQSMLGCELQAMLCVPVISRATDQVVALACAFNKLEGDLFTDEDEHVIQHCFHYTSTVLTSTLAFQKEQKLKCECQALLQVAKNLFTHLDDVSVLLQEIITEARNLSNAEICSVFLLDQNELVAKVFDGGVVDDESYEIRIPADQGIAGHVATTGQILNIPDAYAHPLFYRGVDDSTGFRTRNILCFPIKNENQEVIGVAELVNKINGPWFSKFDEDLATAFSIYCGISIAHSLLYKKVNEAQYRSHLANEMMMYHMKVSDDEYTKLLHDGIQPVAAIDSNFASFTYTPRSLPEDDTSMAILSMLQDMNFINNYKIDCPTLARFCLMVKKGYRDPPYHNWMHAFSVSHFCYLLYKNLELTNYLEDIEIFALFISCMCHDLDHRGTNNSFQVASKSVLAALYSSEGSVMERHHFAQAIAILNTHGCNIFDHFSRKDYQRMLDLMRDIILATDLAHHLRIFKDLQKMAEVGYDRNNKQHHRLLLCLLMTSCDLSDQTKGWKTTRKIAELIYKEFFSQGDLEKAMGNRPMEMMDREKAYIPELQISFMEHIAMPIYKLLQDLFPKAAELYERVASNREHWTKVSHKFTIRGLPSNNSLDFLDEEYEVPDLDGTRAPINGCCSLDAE
Procedure: as §1

[8] = listed as Pyridazinone compound
[9] = listed as pyridazinone compound

With `CC1CC(=O)NN=C1c1ccc(N)c([N+](=O)[O-])c1` (stereo not shown) [6-(4-Amino-3-nitro-phenyl)-5-methyl-4,5-dihydro-2H-pyridazin-3-one] the “inhibition of human platelet PDE5” value [1, 8] was “No significant inhibition”, the “inhibition of human platelet PDE5” value [1, 9] was “little inhibition” and the pIC50 [2] was 7.82. For the same compound, the “SFLLR-induced F-actin assembly” value [3] was “interferes with SFLLR-induced cytoskeleton rearrangement”, the “inhibition of SFLLR-induced platelet aggregation” value [4] was “potent inhibitor” and the “effect on PGE1-stimulated cAMP levels in platelets” value [5] was “augments PGE1-induced cAMP levels in a dose-dependent manner”. For the same compound, the “effect on PGE1-stimulated cAMP levels in platelets” value [5, 8] was “augment PGE1-induced cAMP level increase in platelets in a dose-dependent manner”, the “SFLLR-induced αIIbβ3 activation measured using PAC-1 antibodies” value [6] was “inhibited” and the “inhibition of recombinant human PDE2” value [7, 8] was “No significant inhibition”. The “inhibition of recombinant human PDE2” value [7, 9] was “little inhibition”.
